Assays:
MCT1 = MCT1 (Homo sapiens (Human), UniProt P53985); assay: MCT1-mediated lactate transport in BT20 breast cancer cells; type: cell-based; conditions: native MCT1, 10 mM L-lactate, Table 3
Procedure: (§1) 10 μL of a 30 mM DMSO stock of BCECF-AM ester (Life Technologies) is added and the cells are incubated at 37° C. for 5 min. The cells are pelleted (300 g, 5 min), washed once with 1 mL Tyrode's Solution, pH 7.4, re-pelleted (300 g, 5 min), and resuspended in 1 mL Tyrode's Solution, pH 7.4.
(§2) 2.5 μL BCECF-loaded cells, along with either 10 μL DMSO or 100×compound in DMSO, are added to 937.5 μL of Tyrode's Solution in a quartz 1.0 mL cuvette (PerkinElmer, B0631116). […] After establishing baseline BCECF fluorescence (around 10-20 s), 50 μL of 1 M sodium L-lactate (Sigma-Aldrich) is added to the cuvette (final concentration: 50 mM) and rapidly mixed. The time-dependent decrease in BCECF fluorescence (490/440 ratio) may be fit to an exponential decay curve (Prism GraphPad) to determine the rate of lactate transport.
Assay 4: MCT1-Mediated Lactate Transport in BT20 Breast Cancer Cells.
Preparation of BCECF loaded cells are as described for Assay 1. Lactate transport assay is as described for Assay 1, except 10 mM L-lactate (rather than 50 mM) is added.

MCT4 = MCT4 (Homo sapiens (Human), UniProt O15427); assay: MCT4-mediated lactate transport in MDA-MB-231 breast cancer cells; type: cell-based; conditions: MDA-MB-231 cells, native MCT4; 50 mM L-lactate
Procedure: as §1, §2
Preparation of BCECF-loaded cells and lactate transport activity may be determined as described for Assay 1.

Sequence of MCT4 (O15427 whole entry, looked up): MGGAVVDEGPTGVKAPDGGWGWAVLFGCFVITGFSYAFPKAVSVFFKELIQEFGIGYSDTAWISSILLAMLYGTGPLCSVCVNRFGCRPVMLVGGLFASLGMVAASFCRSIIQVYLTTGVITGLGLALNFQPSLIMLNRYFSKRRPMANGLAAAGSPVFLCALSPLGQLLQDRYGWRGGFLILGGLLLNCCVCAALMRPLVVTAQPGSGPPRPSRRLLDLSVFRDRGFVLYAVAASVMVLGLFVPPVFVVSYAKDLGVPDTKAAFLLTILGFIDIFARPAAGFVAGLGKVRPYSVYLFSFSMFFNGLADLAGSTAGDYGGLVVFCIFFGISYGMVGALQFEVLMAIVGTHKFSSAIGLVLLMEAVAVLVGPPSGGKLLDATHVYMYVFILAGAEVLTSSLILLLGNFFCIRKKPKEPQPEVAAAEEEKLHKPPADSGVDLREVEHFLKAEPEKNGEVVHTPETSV
Sequence of MCT4 (P35613 whole entry partner, looked up): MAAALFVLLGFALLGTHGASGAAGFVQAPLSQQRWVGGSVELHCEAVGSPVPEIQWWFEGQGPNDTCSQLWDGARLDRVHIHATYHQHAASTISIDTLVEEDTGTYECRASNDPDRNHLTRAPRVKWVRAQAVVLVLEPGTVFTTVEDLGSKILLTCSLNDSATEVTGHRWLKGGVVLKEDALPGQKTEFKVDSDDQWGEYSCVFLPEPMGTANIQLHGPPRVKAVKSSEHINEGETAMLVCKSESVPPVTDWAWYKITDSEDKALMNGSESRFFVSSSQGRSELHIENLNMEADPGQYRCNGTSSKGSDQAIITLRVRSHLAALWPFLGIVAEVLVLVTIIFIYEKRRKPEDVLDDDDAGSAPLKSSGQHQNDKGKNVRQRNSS
Sequence of MCT1 (P53985 whole entry): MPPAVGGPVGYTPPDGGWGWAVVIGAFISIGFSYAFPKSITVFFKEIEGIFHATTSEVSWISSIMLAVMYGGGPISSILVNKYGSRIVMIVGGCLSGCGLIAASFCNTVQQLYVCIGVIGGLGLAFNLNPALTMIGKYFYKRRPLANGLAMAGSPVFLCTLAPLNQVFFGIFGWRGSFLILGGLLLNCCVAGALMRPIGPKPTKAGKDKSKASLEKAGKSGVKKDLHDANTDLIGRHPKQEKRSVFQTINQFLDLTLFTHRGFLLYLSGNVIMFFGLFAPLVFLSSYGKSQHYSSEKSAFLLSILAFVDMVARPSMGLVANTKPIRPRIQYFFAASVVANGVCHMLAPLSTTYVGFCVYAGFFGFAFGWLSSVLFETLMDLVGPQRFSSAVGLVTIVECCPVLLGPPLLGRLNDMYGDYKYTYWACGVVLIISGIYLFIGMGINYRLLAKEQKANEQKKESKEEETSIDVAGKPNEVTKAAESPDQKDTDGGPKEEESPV
Sequence of MCT1 (P35613 140-385 partner): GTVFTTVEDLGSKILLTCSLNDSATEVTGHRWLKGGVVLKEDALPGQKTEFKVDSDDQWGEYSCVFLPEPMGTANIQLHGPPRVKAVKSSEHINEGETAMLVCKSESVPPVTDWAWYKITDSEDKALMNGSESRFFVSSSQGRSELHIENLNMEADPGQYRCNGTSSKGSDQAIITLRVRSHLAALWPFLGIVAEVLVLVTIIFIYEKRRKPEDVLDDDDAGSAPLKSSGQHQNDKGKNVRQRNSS

IC50 (MCT1)	IC50 (MCT4)	SMILES
> 100000 nM	30 nM	CC(C)(OCc1cc(-c2ccsc2)n(Cc2ccccc2Cl)n1)C(=O)O [Example 24, 2-[[1-[(2-Chlorophenyl)methyl]-5-(3-thienyl)pyrazol-3-yl]methoxy]-2-methyl-propanoic acid]
77000 nM	33 nM	CC(C)(OCc1cc(-c2cccs2)n(Cc2ccccc2Cl)n1)C(=O)O [Example 25, 2-[[1-[(2-Chlorophenyl)methyl]-5-(2-thienyl)pyrazol-3-yl]methoxy]-2-methyl-propanoic acid]
15000 nM	12 nM	CCOc1cccc(-c2cc(COC(C)(C)C(=O)O)nn2Cc2ccccc2Cl)c1 [Example 28, 2-[[1-[(2-Chlorophenyl)methyl]-5-(3-ethoxyphenyl)pyrazol-3-yl]methoxy]-2-methyl-propanoic acid]
16000 nM	3.7 nM	CC(C)Oc1cccc(-c2cc(COC(C)(C)C(=O)O)nn2Cc2ccccc2Br)c1 [Example 29, 2-[[1-[(2-Bromophenyl)methyl]-5-(3-isopropoxyphenyl)pyrazol-3-yl]methoxy]-2-methyl-propanoic acid]
27000 nM	8.8 nM	COc1cccc(-c2cc(COC(C)(C)C(=O)O)nn2Cc2ccccc2Br)c1 [Example 30, 2-[[1-[(2-Bromophenyl)methyl]-5-(3-methoxyphenyl)-1H-pyrazol-3-yl]methoxy]-2-methylpropanoic acid]
42000 nM	53 nM	COc1cccc(-c2cc(COC(C)(C)C(=O)O)nn2Cc2ccccc2C(C)C)c1 [Example 31, 2-[[1-[(2-Isopropylphenyl)methyl]-5-(3-methoxyphenyl)pyrazol-3-yl]methoxy]-2-methyl-propanoic acid]
83000 nM	79 nM	COc1cccc(-c2cc(COC(C)(C)C(=O)O)nn2Cc2ccccc2C)c1 [Example 32, 2-[[5-(3-Methoxyphenyl)-1-(o-tolylmethyl)pyrazol-3-yl]methoxy]-2-methyl-propanoic acid]
> 11000 nM	9.3 nM	CC(C)(OCc1cc(-c2cccc(OC(F)(F)F)c2)n(Cc2ccccc2Cl)n1)C(=O)O [Example 34, 2-[[1-[(2-Chlorophenyl)methyl]-5-[3-(trifluoromethoxy)phenyl]pyrazol-3-yl]methoxy]-2-methyl-propanoic acid]
> 100000 nM	520 nM	CC(C)(OCc1cc(-c2cccc(CN3CCOCC3)c2)n(Cc2ccccc2Cl)n1)C(=O)O [Example 40, 2-[[1-[(2-Chlorophenyl)methyl]-5-[3-(morpholinomethyl)phenyl]pyrazol-3-yl]methoxy]-2-methyl-propanoic acid]
1200 nM	55 nM	COc1cccc(-c2cc(COC3(C(=O)O)CCC3)nn2Cc2ccccc2Cl)c1 [Example 41, 1-[[1-[(2-Chlorophenyl)methyl]-5-(3-methoxyphenyl)pyrazol-3-yl]methoxy]cyclobutanecarboxylic acid]
–	2.6 nM	CC(C)(OCc1cc(-c2cccc(OCC3CCC3)c2)n(Cc2ccccc2Cl)n1)C(=O)O [Example 42, 2-[[1-[(2-Chlorophenyl)methyl]-5-[3-(cyclobutylmethoxy)phenyl]pyrazol-3-yl]methoxy]-2-methyl-propanoic acid]
> 33000 nM	13 nM	CC(C)(OCc1cc(-c2cccc(OCC(F)(F)F)c2)n(Cc2ccccc2Cl)n1)C(=O)O [Example 43, 2-[[1-[(2-Chlorophenyl)methyl]-5-[3-(2,2,2-trifluoroethoxy)phenyl]pyrazol-3-yl]methoxy]-2-methyl-propanoic acid]
–	1.1 nM	CC(C)(OCc1cc(-c2cccc(OCC3CCCC3)c2)n(Cc2ccccc2Cl)n1)C(=O)O [Example 44, 2-[[1-[(2-Chlorophenyl)methyl]-5-[3-(cyclopentylmethoxy)phenyl]pyrazol-3-yl]methoxy]-2-methyl-propanoic acid]
12000 nM	19 nM	CC(C)(OCc1cc(-c2cccc(OCC3CCOCC3)c2)n(Cc2ccccc2Cl)n1)C(=O)O [Example 45, 2-[[1-[(2-Chlorophenyl)methyl]-5-[3-(tetrahydropyran-4-ylmethoxy)phenyl]pyrazol-3-yl]methoxy]-2-methyl-propanoic acid]
47000 nM	142 nM	CC(C)(OCc1cc(-c2cccc(N3CCOCC3)c2)n(Cc2ccccc2Cl)n1)C(=O)O [Example 46, 2-[[1-[(2-Chlorophenyl)methyl]-5-(3-morpholinophenyl)pyrazol-3-yl]methoxy]-2-methyl-propanoic acid]
> 100000 nM	410 nM	CC(C)(OCc1cc(-c2cscn2)n(Cc2ccccc2Cl)n1)C(=O)O [Example 47, 2-([1-[(o-Chlorophenyl)methyl]-5-(1,3-thiazol-4-yl)-1H-pyrazol-3-yl]methoxy)-2-methylpropionic acid]
55000 nM	89 nM	CC(C)(OCc1cc(-c2cccc(C#N)c2)n(Cc2ccccc2Cl)n1)C(=O)O [Example 48, 2-([1-[(o-Chlorophenyl)methyl]-5-(m-cyanophenyl)-1H-pyrazol-3-yl]methoxy)-2-methylpropionic acid]
130000 nM	240 nM	CC(C)(OCc1cc(-c2cncs2)n(Cc2ccccc2Cl)n1)C(=O)O [Example 49, 2-([1-[(o-Chlorophenyl)methyl]-5-(1,3-thiazol-5-yl)-1H-pyrazol-3-yl]methoxy)-2-methylpropionic acid]
34000 nM	70 nM	CN(C)c1cccc(-c2cc(COC(C)(C)C(=O)O)nn2Cc2ccccc2Cl)c1 [Example 50, 2-([1-[(o-Chlorophenyl)methyl]-5-[m-(dimethylamino)phenyl]-1H-pyrazol-3-yl]methoxy)-2-methylpropionic acid]
6000 nM	15 nM	CC(C)c1cccc(-c2cc(COC(C)(C)C(=O)O)nn2Cc2ccccc2Cl)c1 [Example 51, 2-([1-[(2-Chlorophenyl)methyl]-5-[3-(propan-2-yl)phenyl]-1H-pyrazol-3-yl]methoxy)-2-methylpropanoic Acid]
84000 nM	190 nM	COCc1cccc(-c2cc(COC(C)(C)C(=O)O)nn2Cc2ccccc2Cl)c1 [Example 52, 2-([1-[(2-chlorophenyl)methyl]-5-[3-(methoxymethyl)phenyl]-1H-pyrazol-3-yl]methoxy)-2-methylpropanoic acid]
> 100000 nM	160 nM	COc1cccc(-c2cc(COC(C)(C)C(=O)O)nn2Cc2ccccc2)c1 [Example 53, 2-[[1-benzyl-5-(3-methoxyphenyl)-1H-pyrazol-3-yl]methoxy]-2-methylpropanoic acid]
> 133000 nM	–	COc1cccc(-c2cc(COC(C)(C)C(=O)O)nn2-c2ccccn2)c1 [Example 56, 2-[[5-(3-methoxyphenyl)-1-(pyridin-2-yl)-1H-pyrazol-3-yl]methoxy]-2-methylpropanoic acid]
78000 nM	–	COc1cccc(-c2cc(COC(C)(C)C(=O)O)nn2-c2cccc(Cl)c2)c1 [Example 58, 2-[[1-(3-chlorophenyl)-5-(3-methoxyphenyl)-1H-pyrazol-3-yl]methoxy]-2-methylpropanoic acid]
81000 nM	–	COc1cccc(-c2cc(COC(C)(C)C(=O)O)nn2-c2ccc(Cl)cc2)c1 [Example 59, 2-[[1-(4-chlorophenyl)-5-(3-methoxyphenyl)-1H-pyrazol-3-yl]methoxy]-2-methylpropanoic acid]
44000 nM	13 nM	CC(C)COc1cccc(-c2cc(COC(C)(C)C(=O)O)nn2Cc2ccccc2)c1 [Example 60, 2-([1-Benzyl-5-[3-(2-methylpropoxy)phenyl]-1H-pyrazol-3-yl]methoxy)-2-methylpropanoic Acid]
9000 nM	–	CC(C)(OCc1cc(Cc2ccccc2)n(Cc2ccccc2Cl)n1)C(=O)O [Example 77, 2-([5-Benzyl-1-[(2-chlorophenyl)methyl]-1H-pyrazol-3-yl]methoxy)-2-methylpropanoic Acid]
–	81 nM	CC(C)(OCc1cc(-c2cccc(OCC3COC3)c2)n(Cc2ccccc2Cl)n1)C(=O)O [Example 80, 2-[[1-[(2-Chlorophenyl)methyl]-5-[3-(oxetan-3-ylmethoxy)phenyl]pyrazol-3-yl]methoxy]-2-methyl-propanoic Acid]

SMILES	IC50 (MCT1)	IC50 (MCT4)
CC(C)COc1cccc(-c2cc(COC(C)(C)C(=O)O)nn2Cc2ccccc2F)c1 [Example 26, 2-[[1-[(2-Fluorophenyl)methyl]-5-(3-isobutoxyphenyl)pyrazol-3-yl]methoxy]-2-methyl-propanoic acid]	27000 nM	9.4 nM
CC(C)(OCc1cc(-c2cccc(OCC3CC3)c2)n(Cc2ccccc2Cl)n1)C(=O)O [Example 33, 2-[[1-[(2-Chlorophenyl)methyl]-5-[3-(cyclopropylmethoxy)phenyl]pyrazol-3-yl]methoxy]-2-methyl-propanoic acid]	9100 nM	3.2 nM
CC(C)(OCc1cc(-c2cccc(OC3CCC3)c2)n(Cc2ccccc2Cl)n1)C(=O)O [Example 37, 2-[[1-[(2-Chlorophenyl)methyl]-5-[3-(cyclobutoxy)phenyl]pyrazol-3-yl]methoxy]-2-methyl-propanoic acid]	8400 nM	7.6 nM

— patent publication US10202350B2, “MCT4 inhibitors for treating disease” (Vettore, LLC, priority 2015, dated 2019)
